Data as given in paper PMC12662848 (Cancer Chemotherapy and Pharmacology, 2025).

Experiments:
[1] = system: BCL-2; experiment: Automated Western blot (WES) analysis of BCL-2 protein in patient PBMCs; assay type: in vivo, human
Method: (§1) PBMCs from the trial patients or healthy donors were isolated from whole blood using Lymphoprep™ ([…] Technologies, Cat. #07801) following the manufacturer’s protocol. Whole blood was diluted 1:1 with room temperature phosphate-buffered saline (PBS) containing 2% fetal bovine serum (FBS) and carefully layered over an equal volume of Lymphoprep™ in a 50 mL conical tube. Samples were centrifuged at 800 × g for 20–30 min at room temperature with the brake off. The PBMC layer formed at the interface between the plasma and Lymphoprep™ was gently collected and transferred to a new tube. Cells were washed once with PBS containing 2% FBS by centrifugation at 300 × g for 10 min, and the final pellet was resuspended in DMEM media for downstream culture.
The BCL-2 protein levels in patient PBMCs were analyzed using PBMC lysate in the automated quantitative WES™ system (https://www.bio-techne.com/brands/proteinsimple), as we previously described. Briefly, the Simple Western WES™ immunoassays take place in capillaries and separate proteins by size as they migrate through stacking and separation matrix. The separated proteins are immobilized to the capillary wall via a proprietary, photoactivated capture chemistry. […] Quantitative results such as M.W, signal intensity (area), % area, and signal-to-noise for each immunodetected protein are presented in the results table automatically. […]

[2] = system: BCL-2β mRNA; experiment: qPCR analysis of BCL-2β mRNA in healthy donor PBMCs treated ex vivo with ABT-199; assay type: cell-based, human; conditions: 1 µM; for BCL-2β mRNA levels: 2–4 h post-treatment
Method: as §1
ABT-199 (S8048, Selleck Chemicals) was dissolved in DMSO. Healthy donor PBMCs were seeded at a density of 2 × 10⁶ cells per 60 mm dish and treated with 1 μM of ABT-199 for various time intervals (i.e., 2, 4, 8, and 24 h). At the end of each time point, PBMCs were harvested for protein and RNA extraction (below). All treatments were performed in 3–6 biological replicates and control samples were treated with vehicle (DMSO) only.
We developed a qPCR-based strategy to quantitatively analyze the BCL-2α/β mRNA levels in control and ABT-199 treated PBMCs (above). Briefly, total RNA was extracted using the PicoPure™ RNA Isolation Kit (Thermo Fisher Scientific, cat# KIT0204) with on-column DNase treatment. cDNA was synthesized from 750 ng RNA using SuperScript™ IV VILO™ Master Mix (Thermo Fisher Scientific, cat# 11,756,050). Quantitative PCR was performed using TaqMan Gene Expression Assays (Bio-Rad) with a FAM-conjugated custom probe specific for the BCL-2β isoform (5’-[…]-3’; Bio-Rad, part# 10,031,261). […] Reactions were run on the QuantStudio™ 6 Flex Real-Time PCR System (Applied Biosystems) under standard cycling conditions. Relative expression was calculated using the 2^–ΔΔCt method normalized to the 0-h (untreated) control. All conditions were tested in technical triplicates from 3–6 independent experiments.

[3] = system: CLL; conditions: cited from earlier work
[4] = set-up: method as in PMID 34416076; conditions: cited from earlier work

Q: For `CC1(C)CCC(CN2CCN(c3ccc(C(=O)NS(=O)(=O)c4ccc(NCC5CCOCC5)c([N+](=O)[O-])c4)c(Oc4cnc5[nH]ccc5c4)c3)CC2)=C(c2ccc(Cl)cc2)C1` [venetoclax], which “BCL-2β and BCL-2α protein in patients' PBMCs” value ([1]; three 'responsive' patients (02–01, 02–07, 01–03), early cycles of treatment) is on record?
A: promoted the generation of BCL-2β with concordant reduction in BCL-2α protein

Q: What about the “BCL-2α and BCL-2β protein in patients' PBMCs” value ([1]; three 'responsive' patients, late cycles and towards the end of treatment (EoT)) of the same compound?
A: markedly reduced

Q: What about the “BCL-2β mRNA levels” value [2] of the same compound?
A: induced

Q: And the “BCL-2β mRNA levels” value ([2]; listed as Venetoclax)?
A: increased significantly

Q: And the “BCL-2β mRNA” value ([2]; ≥ 24 h post treatment)?
A: undetectable

Q: What about the Average steady-state venetoclax concentration required for a 50% tumor shrinkage [3] of the same compound?
A: 146 µg/L

Q: What about the “Average steady-state venetoclax concentration that decreases lymphocyte counts by 50% from baseline” value [3] of the same compound?
A: 8.63 µg/L

Q: And the “Extension of PFS with a doubling of dose” value [3]?
A: 6 months

Q: And the Permeability [4]?
A: low

Q: What about the Solubility [4] of the same compound?
A: low
